Reference: US6409809B1 (priority 1999, dated 2002)

Test: QUV accelerated weathering exposure test of painted aluminum panels (colour fading, CIE La*b*)
Format: physicochemical
Settings: Study I, 48 weeks; 6 hr UV/6 hr condensation cycles; mildewcide level 2.0 (% as is); phthalocyanine blue acrylic paint
Experimental: An exposure test was conducted in two studies to determine the effect of weathering (UV exposure and/or condensation) on samples of panels with paints containing chlorothalonil, tetraconazole, and chlorothalonil/tetraconazole blend additives, respectively. The panels were aluminum having a 3003 alloy mill finish. One coating (6 mils thick when wet) of the selected paint was applied to each panel and allowed to air dry for 7 days at ambient temperature. Simulated weathering was performed by exposure of the panels to a QUV accelerated weathering tester providing UVA radiation at a power consumption of 1200 Watts (110 volts, 60 Hz). The exposure was conducted in alternating and repeating 6-hour cycles, one 6-hour cycle being an ultraviolet radiation exposure cycle (conducted at 80° C.), and the other cycle being a condensation cycle wherein the panels are exposed to moisture (conducted at 60°). The results are set forth below in Table I. CIE La*b* System describes a color space wherein ‘a’ is the green(−)/[…] axis. ‘L’ is lightness; ‘C’ is chroma or saturation.

SMILES: FC(F)C(F)(F)OCC(Cn1cncn1)c1ccc(Cl)cc1Cl (centres unmarked) [TCZ, Tetraconazole]
- DC vs. Blank: 1.02
- DL vs. Blank: −2.20
